Data: PubChem BioAssay (NCI)
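Tested at 5 concentrations; 48 h exposure; 96-well plates; endpoints linearly interpolated, else capped at highest concentration. GI50: concentration for 50% inhibition of growth. At the TGI there is no net growth.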

What was measured:
Assay in all cases: inhibition of tumour cell growth, NCI panel, 48 h
NCI/ADR-RES ovarian = test system: NCI/ADR-RES ovarian
IGROV1 ovarian = test system: IGROV1 ovarian
TK-10 renal = test system: TK-10 renal
MALME-3M melanoma = test system: MALME-3M melanoma
786-0 renal = test system: 786-0 renal
BT-549 breast = test system: BT-549 breast
MDA-MB-231 breast = test system: MDA-MB-231 breast
MDA-MB-435 = test system: MDA-MB-435
U251 CNS = test system: U251 CNS
SF-268 CNS = test system: SF-268 CNS

| SMILES | GI50 (NCI/ADR-RES ovarian) | TGI (NCI/ADR-RES ovarian) | GI50 (IGROV1 ovarian) | TGI (IGROV1 ovarian) | GI50 (TK-10 renal) | TGI (TK-10 renal) | GI50 (MALME-3M melanoma) | TGI (MALME-3M melanoma) | GI50 (786-0 renal) | TGI (786-0 renal) | GI50 (BT-549 breast) | TGI (BT-549 breast) | GI50 (MDA-MB-231 breast) | TGI (MDA-MB-231 breast) | GI50 (MDA-MB-435) | TGI (MDA-MB-435) | GI50 (U251 CNS) | TGI (U251 CNS) | GI50 (SF-268 CNS) | TGI (SF-268 CNS) |
| --- | --- | --- | --- | --- | --- | --- | --- | --- | --- | --- | --- | --- | --- | --- | --- | --- | --- | --- | --- | --- |
| CC[C@]1(O)C[C@@H]2CN(CCc3c([nH]c4ccccc34)[C@@](C(=O)OC)(c3cc4c(cc3OC)N(C)[C@H]3[C@@](O)(C(=O)OC)[C@H](OC(C)=O)[C@]5(CC)C=CCN6CC[C@]43[C@@H]65)C2)C1 | < 0.0445 µM | 2.68 µM | < 0.01 µM | 13 µM | 6.02 µM | 26.9 µM | < 0.01 µM | 14.1 µM | < 0.01 µM | 14.5 µM | < 0.01 µM | 8.4 µM | < 0.01 µM | 11.2 µM | < 0.01 µM | < 0.01 µM | < 0.01 µM | 20.5 µM | < 0.0281 µM | 19.5 µM |
| CC1(C)OC2[C@@H](CNC(=O)NC(=O)NC(=O)CI)O[C@@H](n3cnc4c(NC(=O)Nc5ccccc5)ncnc43)[C@H]2O1 (some centres undefined) | 16.4 µM | > 50 µM | 2.15 µM | 8.6 µM | 8.59 µM | 15.5 µM | 1.12 µM | 2.9 µM | 7.47 µM | 14.4 µM | 7.83 µM | 14.7 µM | 9.42 µM | 19.4 µM | 7.57 µM | 14.8 µM | 10 µM | 20.4 µM | 8.22 µM | 17.1 µM |
| Oc1ccc2ccccc2c1N=Nc1nccs1 | 0.393 µM |  | 0.172 µM | 6.95 µM | 8.28 µM | 22.2 µM | 2.41 µM | 15.4 µM | 0.476 µM | > 41.7 µM | 4.75 µM | 32.3 µM | 0.745 µM | > 100 µM | 3.03 µM | 27.9 µM | 0.29 µM | 13.4 µM | 0.312 µM | > 100 µM |
| COc1ccc(NC2=CC(=O)C(=O)c3ccccc32)nn1 |  | 3.65 µM |  | 11.1 µM |  | 9.92 µM |  | 1.96 µM |  | 3.76 µM |  | 2.05 µM |  | 34.8 µM |  | 1.32 µM |  | 12.4 µM |  | 6.95 µM |
| Oc1ccc(NCc2nc3ccccc3[nH]2)cc1 | > 100 µM | > 100 µM | 76.4 µM | > 100 µM | > 100 µM | > 100 µM | 76.3 µM | > 100 µM | 74.5 µM | > 100 µM | 50.1 µM | > 100 µM | 38.4 µM | > 100 µM | > 100 µM | > 100 µM | 28.2 µM | > 100 µM | 35.3 µM | > 100 µM |
| CC[CH2][Sn]([CH2]CC)([O]C(=O)c1cccnc1SC)[O][Sn]([CH2]CC)([CH2]CC)[O]C(=O)c1cccnc1SC | 1.49 µM | 3.24 µM | 1.26 µM | 3.79 µM | 0.409 µM | 1.09 µM | 0.237 µM | 0.566 µM | 0.313 µM | 0.675 µM | 1.41 µM | 2.71 µM | 1.34 µM | 2.76 µM | 1.54 µM | 2.89 µM | 0.25 µM | 0.592 µM | 0.33 µM | 0.969 µM |
| O=C1c2cc(Cl)ccc2S(=O)(=O)c2c(NCCCNCCO)nc3ccccc3c21 | 3.05 µM | 10.8 µM | 2.88 µM | 9.56 µM | 1.21 µM | 2.46 µM | 1.19 µM | 2.56 µM | 1.71 µM | 3.34 µM | 3.99 µM | 14.6 µM | 1.49 µM | 2.94 µM | 1.5 µM | 3.13 µM | 1.62 µM | 3.18 µM | 1.7 µM | 4.37 µM |
| Oc1ccc(CN2CCC(N3CCCCC3)CC2)c2cccnc12 | 24.2 µM | > 100 µM | 23.4 µM | > 100 µM | 78.2 µM | > 100 µM | 24.4 µM | > 100 µM | 19.3 µM | > 100 µM | 11.5 µM | > 100 µM | 22.4 µM | > 100 µM | 4.63 µM | > 100 µM | 5.57 µM | > 100 µM | 7.06 µM | > 100 µM |
| C=C1C(=O)O[C@H]2[C@H]1CC/C(Cn1cc(-c3ccc(OC)cc3)nn1)=C\CC[C@@]1(C)O[C@@H]21 | 3.08 µM | 12.4 µM | 1.35 µM | 3.27 µM | 1.42 µM | 2.85 µM | 1.67 µM | 3.4 µM | 1.24 µM | 2.65 µM | 1.31 µM | 2.89 µM | 1.44 µM | 3.15 µM | 1.14 µM | 3.24 µM | 9.45 µM | 21.5 µM | 2.07 µM | 5.23 µM |
